What was measured:
[1] = Circular dichroism, percent α helicity; assay type: physicochemical; conditions: CD, 222 nm MRE, 50 μM peptide, room temperature
Excerpt: CD spectra were obtained using a J-815 CD spectrometer (Jasco) using the wavelength range of 190 to 260 nm. Spectra were collected in a 10 mm quartz cuvette and each spectrum represents the accumulation of three solvent-blank subtracted runs. Data were collected using the following system parameters: bandwidth of 1.00 nm, digital integration time of 2 s, pitch of 1.0 nm, and a scan speed of 50 nm/min. Data underwent minimal adaptive smoothing, and all the related spectra were taken at room temperature under inert nitrogen flow. Peptides were solubilized to 50 μM in either Milli-Q water, 45 mM sodium phosphate buffer (pH 7.4), 30 mM SDS (pH 7.4), or 50% (v/v) TFE. Percentage of α helicity was calculated based on the ellipticity value at 222 nm as done previously ([25], [63]), following the equation α helicity (%)=([ϴ]obs222-[ϴ]0)/([ϴ]max222-[ϴ]0) where [ϴ]max222 = (−44,000 + 250T) (1-x/n), [ϴ]0 = […], T = 20 °C, x = 3, n = number of residues ([25], [63]).

MCF-7 ER + cells = test: Soft agar colony formation assay (anchorage independent growth); assay type: cell-based; conditions: MCF-7, E2 1 nM, peptide 20 μM, 14 to 18 days
Description: Figure 6 Soft agar colony formation assay. (A) soft agar average colony size and (B) average colony formation in MCF-7 ER + cells assessed in the presence of vehicle (EtOH), E2 (1 nM), and the indicated peptide treatments (WT, LL, or LD) at 20 μM. Graphed data represent the mean ± SD (n = 6). An ordinary one-way ANOVA was used to assess statistical significance where ‘∗’ indicates p < 0.05, ‘∗∗’ indicates p < 0.01, ‘∗∗∗’ indicates p < 0.001. ER, estrogen receptor.
Cells were seeded (1.5 × 10^4 cells/well) in 1X sterile low melt agarose (Life Technologies) containing 5% dextran-coated charcoal and the appropriate treatment. Soft agar assays were allowed to proceed for 14 to 18 days at 37 °C. Afterward, cell colonies were stained with 0.005% crystal violet in PBS. Colony number and colony size were analyzed with ImageJ (Wayne Rasband, National Institutes of Health, http://rsbweb.nih.gov/ij/). Data are presented as the average ± SD of six independent measurements.

[2] = target: SRC2-LD, FTDR-stapled, FITC-labelled; test: fluorescence polarisation; saturation fluorescence anisotropy; ERα-LBD serially diluted to 0.4-7500 nM with 17β-estradiol at four equivalents to ERα; FITC-peptide 50 nM; 10 mM Hepes pH 7.4, 50 mM EDTA, 150 mM NaCl, 0.005% Tween-20; 96-well plates
[3] = target: SRC2-LL, FTDR-stapled, FITC-labelled; test: as above

Row | Substance | α-helicity (%) ([1]; 30 mM SDS micellar solution, pH 7.4) | α-helicity (%) ([1]; 45 mM sodium phosphate buffer, pH 7.4) | α-helicity (%) ([1]; 50% (v/v) TFE in water, pH 7.4) | α-helicity (%) ([1]; Water) | downregulation of colony size compared to the vehicle (MCF-7 ER + cells) [%] | average colony size (MCF-7 ER + cells; n = 6) | fold increase in Kd against SRC2-RCM [2] [fold] | fold increase in Kd against SRC2-RCM [3] [fold]
1 | HKILHRLLQDS [SRC2-WT] | 57.9 | 17 | 84 | 12.8 | 19 | 10,193 μm^2 |  | 
2 | estrogen receptor α ligand-binding domain (domain or fragment) |  |  |  |  |  |  | 1.2 | 1.5

Reference: PMC11667158, “Flexible fluorine-thiol displacement stapled peptides with enhanced membrane penetration for the estrogen receptor/coactivator interaction” (The Journal of Biological Chemistry, 2024)
